Reference: ChEMBL document CHEMBL5356994, “Synthesis, biological and molecular modelling for 1,3,4-thiadiazole sulfonyl thioureas: bacterial and fungal activity” (RSC Med Chem, 2023)
Values after ≈ are worked out from the molar mass of the structure shown.

Tests used:
[1] = test system: Phytophthora infestans; assay: Antifungal activity against Phytophthora infestans assessed as inhibition of fungal growth incubated for 5 days by poison plate technique; format: functional, organism-based; conditions: 120 h
[2] = test system: Fusarium oxysporum; assay: Antifungal activity against Fusarium oxysporum assessed as inhibition of fungal growth incubated for 72 hrs by agar dilution method; format: functional
[3] = test system: Staphylococcus aureus; assay: Antibacterial activity against Staphylococcus aureus assessed as inhibition of bacterial growth incubated for 18 to 20 hrs by microbroth dilution method; format: functional; conditions: time 18-20 hrs
[4] = test system: Candida albicans; assay: Antifungal activity against Candida albicans assessed as inhibition of fungal growth incubated for 72 hrs by agar dilution method; format: functional
[5] = test system: Clostridioides difficile; assay: Antibacterial activity against Clostridium difficile assessed as inhibition of bacterial growth incubated for 18 to 20 hrs by microbroth dilution method; format: functional; conditions: time 18-20 hrs
[6] = test system: Streptococcus pneumoniae; assay: Antibacterial activity against Streptococcus pneumoniae assessed as inhibition of bacterial growth incubated for 18 to 20 hrs by microbroth dilution method; format: functional; conditions: time 18-20 hrs
[7] = test system: Pseudomonas aeruginosa; assay: Antibacterial activity against Pseudomonas aeruginosa assessed as inhibition of bacterial growth incubated for 18 to 20 hrs by microbroth dilution method; format: functional; conditions: time 18-20 hrs
[8] = test system: Escherichia coli; assay: Antibacterial activity against Escherichia coli assessed as inhibition of bacterial growth incubated for 18 to 20 hrs by microbroth dilution method; format: functional; conditions: time 18-20 hrs
[9] = test system: Staphylococcus epidermidis; assay: Antibacterial activity against Staphylococcus epidermidis assessed as inhibition of bacterial growth incubated for 18 to 20 hrs by microbroth dilution method; format: functional; conditions: time 18-20 hrs
[10] = test system: Saccharomyces cerevisiae; assay: Antifungal activity against Saccharomyces cerevisiae assessed as inhibition of fungal growth incubated for 72 hrs by agar dilution method; format: functional
[11] = test system: Salmonella typhimurium; assay: Antibacterial activity against Salmonella typhimurium assessed as inhibition of bacterial growth incubated for 18 to 20 hrs by microbroth dilution method; format: functional, Salmonella enterica subsp. enterica serovar Typhimurium; conditions: Salmonella enterica; time 18-20 hrs
[12] = test system: Aspergillus niger; assay: Antifungal activity against Aspergillus niger assessed as inhibition of fungal growth incubated for 72 hrs by agar dilution method; format: functional
[13] = test system: Aspergillus flavus; assay: Antifungal activity against Aspergillus flavus assessed as inhibition of fungal growth incubated for 72 hrs by agar dilution method; format: functional
[14] = test system: Klebsiella pneumoniae; assay: Antibacterial activity against Klebsiella pneumoniae assessed as inhibition of bacterial growth incubated for 18 to 20 hrs by microbroth dilution method; format: functional; conditions: time 18-20 hrs
[15] = test system: Bacillus subtilis; assay: Antibacterial activity against Bacillus subtilis assessed as inhibition of bacterial growth incubated for 18 to 20 hrs by microbroth dilution method; format: functional; conditions: time 18-20 hrs
[16] = target: Carbonic anhydrase 2 (Homo sapiens, UniProt P00918); assay: Inhibition of human carbonic anhydrase II esterase activity using p-nitrophenol acetate as substrate and measured for 3 mins by UV/visible spectrophotometric analysis
[17] = target: Dihydrofolate reductase (Staphylococcus aureus, UniProt P0A017); assay: Inhibition of Staphylococcus aureus dihydrofolate reductase using dihydrofolate as substrate in presence of NADPH by microplate reader analysis
[18] = target: DNA gyrase subunit B (Staphylococcus aureus, UniProt P0A0K8); assay: Inhibition of Staphylococcus aureus DNA gyrase subunit B ATPase activity using relaxed pNO1 plasmid as substrate incubated for 30 mins by microplate reader analysis
[19] = target: DNA topoisomerase 4 subunit B (Staphylococcus aureus, UniProt P0C1S7); assay: Inhibition of Staphylococcus aureus DNA topoisomerase 4 subunit B ATPase activity using relaxed pNO1 plasmid as substrate incubated for 30 mins by microplate reader analysis
[20] = test system: Mycobacterium tuberculosis; assay: Antitubercular activity against Mycobacterium tuberculosis H37Rv assessed as inhibition of bacterial growth incubated for 24 hrs by two-fold dilution method; format: functional
[21] = test system: Aspergillus flavus; assay: Antifungal activity against Aspergillus flavus assessed as inhibition of fungal growth incubated for 16 to 18 hrs by serial dilution method; format: functional; conditions: time 16-18 hrs
[22] = test system: Staphylococcus aureus; assay: Antibacterial activity against Staphylococcus aureus assessed as inhibition of bacterial growth incubated for 16 to 18 hrs by serial dilution method; format: functional; conditions: time 16-18 hrs
[23] = test system: Candida albicans; assay: Antifungal activity against Candida albicans assessed as inhibition of fungal growth incubated for 16 to 18 hrs by serial dilution method; format: functional; conditions: time 16-18 hrs
[24] = test system: Escherichia coli; assay: Antibacterial activity against Escherichia coli assessed as inhibition of bacterial growth incubated for 16 to 18 hrs by serial dilution method; format: functional; conditions: time 16-18 hrs
[25] = test system: Candida albicans; assay: Antifungal activity against Candida albicans assessed as inhibition of fungal growth incubated for 20 hrs by macro-broth dilution method; format: functional

Chain of DNA topoisomerase 4 subunit B (P0C1S7 whole entry): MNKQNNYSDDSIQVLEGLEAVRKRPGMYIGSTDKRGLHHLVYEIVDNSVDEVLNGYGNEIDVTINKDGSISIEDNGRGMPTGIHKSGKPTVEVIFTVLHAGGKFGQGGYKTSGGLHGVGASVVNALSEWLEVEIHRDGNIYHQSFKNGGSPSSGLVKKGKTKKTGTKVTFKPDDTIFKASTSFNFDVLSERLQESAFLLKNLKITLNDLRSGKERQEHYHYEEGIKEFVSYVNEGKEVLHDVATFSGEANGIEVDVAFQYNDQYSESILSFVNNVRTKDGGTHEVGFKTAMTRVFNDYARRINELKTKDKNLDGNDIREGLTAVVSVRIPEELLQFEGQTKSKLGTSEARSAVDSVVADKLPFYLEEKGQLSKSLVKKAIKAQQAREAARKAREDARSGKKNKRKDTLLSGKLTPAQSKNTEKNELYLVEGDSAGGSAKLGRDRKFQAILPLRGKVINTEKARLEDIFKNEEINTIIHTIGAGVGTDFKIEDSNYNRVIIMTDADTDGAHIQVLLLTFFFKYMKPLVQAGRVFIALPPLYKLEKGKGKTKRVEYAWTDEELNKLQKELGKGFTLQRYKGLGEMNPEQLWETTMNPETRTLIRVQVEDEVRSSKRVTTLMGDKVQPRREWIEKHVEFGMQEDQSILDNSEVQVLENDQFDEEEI
Chain of Dihydrofolate reductase (P0A017 whole entry): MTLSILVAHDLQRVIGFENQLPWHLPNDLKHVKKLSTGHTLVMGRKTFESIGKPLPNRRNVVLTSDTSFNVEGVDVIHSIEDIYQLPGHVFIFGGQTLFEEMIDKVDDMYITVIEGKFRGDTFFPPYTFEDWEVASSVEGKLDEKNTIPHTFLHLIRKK
Chain of DNA gyrase subunit B (P0A0K8 whole entry): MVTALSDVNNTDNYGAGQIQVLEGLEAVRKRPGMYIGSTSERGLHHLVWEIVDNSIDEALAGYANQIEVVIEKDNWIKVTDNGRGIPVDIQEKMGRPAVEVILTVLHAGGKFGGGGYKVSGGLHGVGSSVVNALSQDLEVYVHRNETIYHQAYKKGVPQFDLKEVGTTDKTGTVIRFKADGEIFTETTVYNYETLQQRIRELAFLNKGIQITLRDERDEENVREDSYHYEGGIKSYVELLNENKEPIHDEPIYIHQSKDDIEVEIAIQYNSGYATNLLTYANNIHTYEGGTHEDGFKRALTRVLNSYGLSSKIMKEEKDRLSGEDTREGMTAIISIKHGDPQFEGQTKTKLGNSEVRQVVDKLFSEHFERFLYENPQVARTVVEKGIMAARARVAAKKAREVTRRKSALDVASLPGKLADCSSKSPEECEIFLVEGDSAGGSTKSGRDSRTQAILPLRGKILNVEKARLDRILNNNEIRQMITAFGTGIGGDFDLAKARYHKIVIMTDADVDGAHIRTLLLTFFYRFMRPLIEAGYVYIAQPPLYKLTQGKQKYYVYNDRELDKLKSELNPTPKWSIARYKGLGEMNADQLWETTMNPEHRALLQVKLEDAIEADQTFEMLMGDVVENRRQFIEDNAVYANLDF

SMILES: COc1ccc(/C(=C/C(=O)N2CCOCC2)c2ccc(Cl)cc2)cc1OC
- EC50 [1]: 5.53 µg/mL (≈ 14.3 µM)

SMILES: Cc1ccc(S(=O)(=O)NC(=S)Nc2nnc(CC(C)C)s2)cc1
- MIC [2]: 1.56 µg/mL (≈ 4.21 µM)
- MIC [3]: 100 µg/mL (≈ 270 µM)
- MIC [4]: 3.12 µg/mL (≈ 8.43 µM)
- MIC [5]: 3.12 µg/mL (≈ 8.43 µM)
- MIC [6]: 0.78 µg/mL (≈ 2.11 µM)
- MIC [7]: 6.25 µg/mL (≈ 16.9 µM)
- MIC [8]: 6.25 µg/mL (≈ 16.9 µM)
- MIC [9]: 12.5 µg/mL (≈ 33.7 µM)
- MIC [10]: 3.12 µg/mL (≈ 8.43 µM)
- MIC [11]: 50 µg/mL (≈ 135 µM)
- MIC [12]: 50 µg/mL (≈ 135 µM)
- MIC [13]: 0.78 µg/mL (≈ 2.11 µM)
- MIC [14]: 400 µg/mL (≈ 1080 µM)
- MIC [15]: 0.78 µg/mL (≈ 2.11 µM)

SMILES: CCCc1nnc(NC(=S)NS(=O)(=O)c2ccc(C)cc2)s1
- MIC [2]: 200 µg/mL (≈ 561 µM)
- MIC [3]: 50 µg/mL (≈ 140 µM)
- MIC [4]: 3.12 µg/mL (≈ 8.77 µM)
- MIC [5]: 25 µg/mL (≈ 70.1 µM)
- MIC [6]: 1.56 µg/mL (≈ 4.38 µM)
- MIC [7]: 100 µg/mL (≈ 281 µM)
- MIC [8]: 12.5 µg/mL (≈ 35.1 µM)
- MIC [9]: 25 µg/mL (≈ 70.1 µM)
- MIC [10]: 1.56 µg/mL (≈ 4.38 µM)
- MIC [11]: 25 µg/mL (≈ 70.1 µM)
- MIC [12]: 12.5 µg/mL (≈ 35.1 µM)
- MIC [13]: 1.56 µg/mL (≈ 4.38 µM)
- MIC [14]: 25 µg/mL (≈ 70.1 µM)
- MIC [15]: 3.12 µg/mL (≈ 8.77 µM)

SMILES: O=S(=O)(NC(=S)Nc1ccccc1)c1ccc(Cl)cc1
- IC50 [16]: 384 µM

SMILES: CCCCc1nnc(NC(=S)NS(=O)(=O)c2ccc(C)cc2)s1
- MIC [2]: 400 µg/mL (≈ 1080 µM)
- MIC [3]: 400 µg/mL (≈ 1080 µM)
- MIC [4]: 400 µg/mL (≈ 1080 µM)
- MIC [5]: 400 µg/mL (≈ 1080 µM)
- MIC [6]: 400 µg/mL (≈ 1080 µM)
- MIC [7]: 400 µg/mL (≈ 1080 µM)
- MIC [8]: 400 µg/mL (≈ 1080 µM)
- MIC [9]: 400 µg/mL (≈ 1080 µM)
- MIC [10]: 400 µg/mL (≈ 1080 µM)
- MIC [11]: 400 µg/mL (≈ 1080 µM)
- MIC [12]: 400 µg/mL (≈ 1080 µM)
- MIC [13]: 400 µg/mL (≈ 1080 µM)
- MIC [14]: 400 µg/mL (≈ 1080 µM)
- MIC [15]: 400 µg/mL (≈ 1080 µM)

SMILES: CCc1nnc(NC(=S)NS(=O)(=O)c2ccc(C)cc2)s1
- MIC [2]: 6.25 µg/mL (≈ 18.2 µM)
- MIC [3]: 6.25 µg/mL (≈ 18.2 µM)
- MIC [4]: 1.56 µg/mL (≈ 4.56 µM)
- MIC [5]: 0.78 µg/mL (≈ 2.28 µM)
- IC50 [17]: 0.47 µM
- MIC [6]: 3.12 µg/mL (≈ 9.12 µM)
- MIC [7]: 50 µg/mL (≈ 146 µM)
- MIC [8]: 200 µg/mL (≈ 584 µM)
- MIC [9]: 50 µg/mL (≈ 146 µM)
- MIC [10]: 25 µg/mL (≈ 73 µM)
- IC50 [18]: 3.17 µM
- IC50 [19]: 78.1 µM
- MIC [11]: 3.12 µg/mL (≈ 9.12 µM)
- MIC [12]: 100 µg/mL (≈ 292 µM)
- MIC [13]: 6.25 µg/mL (≈ 18.2 µM)
- MIC [14]: 12.5 µg/mL (≈ 36.5 µM)
- MIC [15]: 1.56 µg/mL (≈ 4.56 µM)

SMILES: FC(F)(F)c1cc(NC(=S)Nc2nnc(-c3ccc(Cl)cc3)s2)ccc1Cl
- MIC [20]: 10.9 µM (≈ 4.9 µg/mL)

SMILES: S=C(/N=C/c1cc2cc(Cl)ccc2nc1Cl)Nc1nnc(-c2ccc(Cl)cc2)s1
- MIC [21]: 3.12 µg/mL (≈ 6.52 µM)
- MIC [22]: 3.12 µg/mL (≈ 6.52 µM)
- MIC [23]: 3.12 µg/mL (≈ 6.52 µM)
- MIC [24]: 3.12 µg/mL (≈ 6.52 µM)

SMILES: CC(=O)OC[C@H]1O[C@@H](Sc2nnc(NC(=O)c3ccc(F)cc3)s2)[C@@H](OC(C)=O)[C@H](OC(C)=O)[C@@H]1OC(C)=O
- EC50 [1]: 3.43 µg/mL (≈ 5.86 µM)

SMILES: Cc1ccc(S(=O)(=O)NC(=S)Nc2nnc(C)s2)cc1
- MIC [2]: 25 µg/mL (≈ 76.1 µM)
- MIC [3]: 25 µg/mL (≈ 76.1 µM)
- MIC [4]: 0.78 µg/mL (≈ 2.37 µM)
- MIC [5]: 6.25 µg/mL (≈ 19 µM)
- MIC [6]: 12.5 µg/mL (≈ 38.1 µM)
- MIC [7]: 1.56 µg/mL (≈ 4.75 µM)
- MIC [8]: 50 µg/mL (≈ 152 µM)
- MIC [9]: 100 µg/mL (≈ 304 µM)
- MIC [10]: 6.25 µg/mL (≈ 19 µM)
- MIC [11]: 12.5 µg/mL (≈ 38.1 µM)
- MIC [12]: 50 µg/mL (≈ 152 µM)
- MIC [13]: 25 µg/mL (≈ 76.1 µM)
- MIC [14]: 6.25 µg/mL (≈ 19 µM)
- MIC [15]: 6.25 µg/mL (≈ 19 µM)

SMILES: C=CCNc1nnc(-c2ccccc2OCc2ccc(Cl)cc2)s1
- MIC [25]: 0.08 µg/mL (≈ 0.224 µM)

SMILES: Cc1ccc(S(=O)(=O)NC(=S)Nc2nncs2)cc1
- MIC [2]: 25 µg/mL (≈ 79.5 µM)
- MIC [3]: 3.12 µg/mL (≈ 9.94 µM)
- MIC [4]: 25 µg/mL (≈ 79.5 µM)
- MIC [5]: 200 µg/mL (≈ 636 µM)
- IC50 [17]: 0.37 µM
- MIC [6]: 12.5 µg/mL (≈ 39.8 µM)
- MIC [7]: 25 µg/mL (≈ 79.5 µM)
- MIC [8]: 1.56 µg/mL (≈ 4.96 µM)
- MIC [9]: 3.12 µg/mL (≈ 9.94 µM)
- MIC [10]: 12.5 µg/mL (≈ 39.8 µM)
- IC50 [18]: 1.56 µM
- IC50 [19]: 67.6 µM
- MIC [11]: 1.56 µg/mL (≈ 4.96 µM)
- MIC [12]: 200 µg/mL (≈ 636 µM)
- MIC [13]: 50 µg/mL (≈ 159 µM)
- MIC [14]: 50 µg/mL (≈ 159 µM)
- MIC [15]: 12.5 µg/mL (≈ 39.8 µM)
